Results as given in patent publication US12660819B2, “Herbicidal derivatives” (SYNGENTA CROP PROTECTION AG, priority 2020, dated 2026).

Columns and labels:
Assay type in all cases: in vivo
[1] = system: Abutilon theophrasti (ABUTH); assay: Post-emergence Test (glasshouse, percentage damage to the plant); settings: post-emergence spray, 1000 g/ha unless otherwise stated, evaluated after 13 days
In short: (§1)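 Percentage damage to the plant, assessed 13 days after application and scored 1–5 in 20% bands. Pots sown in standard soil received compound at 1000 g/ha unless otherwise stated, sprayed under 24/16 °C, 14 h light, 65% humidity.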

[2] = system: Amaranthus retoflexus (AMARE); assay: as above; settings: post-emergence spray, 1000 g/ha unless otherwise stated, evaluated after 13 days
In short: as §1

[3] = system: Echinochloa crus-galli (ECHCG); assay: as above; settings: post-emergence spray, 1000 g/ha unless otherwise stated, evaluated after 13 days
In short: as §1

[4] = system: Ipomoea hederacea (IPOHE); assay: as above; settings: post-emergence spray, 1000 g/ha unless otherwise stated, evaluated after 13 days
In short: (§2)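 Seeds sown in pots in glasshouse (24/16 °C day/night, 14 h light, 65% humidity), then sprayed with compound at 1000 g/ha unless stated, from acetone/water 50:50 with 0.5% Tween 20. Damage assessed 13 days later on five-point scale (1=0–20% to 5=81–100%).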

Setaria faberi (SETFA) [5] = assay: as above; settings: post-emergence spray, 1000 g/ha unless otherwise stated, evaluated after 13 days
In short: as §2

Zea mays (ZEAMX) [6] = assay: as above; settings: post-emergence spray, 1000 g/ha unless otherwise stated, evaluated after 13 days
In short: as §2

[7] = system: Amaranthus retoflexus (AMARE); assay: Pre-emergence Test (glasshouse, percentage damage to the plant); settings: 1000 g/ha unless otherwise stated, five-point scale
Setaria faberi (SETFA) [8] = assay: as above; settings: 1000 g/ha unless otherwise stated, five-point scale
[9] = system: Echinochloa crus-galli (ECHCG); assay: as above; settings: 1000 g/ha unless otherwise stated, five-point scale
[10] = system: Ipomoea hederacea (IPOHE); assay: as above; settings: 1000 g/ha unless otherwise stated, five-point scale
[11] = system: Abutilon theophrasti (ABUTH); assay: as above; settings: 1000 g/ha unless otherwise stated, five-point scale
Zea mays (ZEAMX) [12] = assay: as above; settings: 1000 g/ha unless otherwise stated, five-point scale

Compound | Post-emergence Test ABUTH, percentage damage to the plant (five-point scale) [1] | Post-emergence Test AMARE, percentage damage to the plant (five-point scale) [2] | Post-emergence Test ECHCG, percentage damage to the plant (five-point scale) [3] | Post-emergence Test IPOHE, percentage damage to the plant (five-point scale) [4] | Post-emergence Test SETFA, percentage damage to the plant (five-point scale) (Setaria faberi (SETFA) [5]) | Post-emergence Test ZEAMX, percentage damage to the plant (five-point scale) (Zea mays (ZEAMX) [6]) | percentage damage to the plant, AMARE [7] | percentage damage to the plant, SETFA (Setaria faberi (SETFA) [8]) | percentage damage to the plant, ECHCG [9] | percentage damage to the plant, IPOHE [10] | percentage damage to the plant, ABUTH [11] | percentage damage to the plant, ZEAMX (Zea mays (ZEAMX) [12])
CCn1c(C)c(-c2cc(F)cc(C#N)c2)c(=O)c(C(=O)O)c1-c1ccc(Cl)c(Cl)c1 [Compound 78, 5-(3-cyano-5-fluoro-phenyl)-2-(3,4-dichlorophenyl)-1-ethyl-6-methyl-4-oxo-pyridine-3-carboxylic acid] | 2 (2=21-40%) | 1 (1=0-20%) | 2 (2=21-40%) | 1 (1=0-20%) | 3 (3=41-60%) | 1 (1=0-20%) | 2 (2=21-40%) | 4 (4=61-80%) | 3 (3=41-60%) | 2 (2=21-40%) | 1 (1=0-20%) | 1 (1=0-20%)
CCn1c(C)c(-c2cc(F)cc(OCC(F)(F)F)c2)c(=O)c(C(=O)O)c1-c1ccc(Cl)c(Cl)c1 [Compound 94, 2-(3,4-dichlorophenyl)-1-ethyl-5-[3-fluoro-5-(2,2,2-trifluoroethoxy)phenyl]-6-methyl-4-oxo-pyridine-3-carboxylic acid] | 1 (1=0-20%) | 1 (1=0-20%) | 1 (1=0-20%) | 1 (1=0-20%) | 1 (1=0-20%) | 1 (1=0-20%) | 1 (1=0-20%) | 1 (1=0-20%) | 1 (1=0-20%) | 1 (1=0-20%) | 1 (1=0-20%) | 1 (1=0-20%)
CCn1c(C)c(-c2cccc(Cl)c2)c(=O)c(C(=O)O)c1-c1ccc(Cl)c(Cl)n1 [Compound 149, 5-(3-chlorophenyl)-2-(5,6-dichloro-2-pyridyl)-1-ethyl-6-methyl-4-oxo-pyridine-3-carboxylic acid] | 1 (1=0-20%) | 1 (1=0-20%) | 0 | 2 (2=21-40%) | 0 | 1 (1=0-20%) | 0 | 0 | 0 | 0 | 0 | 0
CCn1c(C)c(-c2cccc(C(F)(F)F)c2)c(=O)c(C(=O)O)c1-c1ccc(Cl)c(Cl)n1 [Compound 150, 2-(5,6-dichloro-2-pyridyl)-1-ethyl-6-methyl-4-oxo-5-[3-(trifluoromethyl)phenyl] pyridine-3-carboxylic acid] | 0 | 0 | 1 (1=0-20%) | 2 (2=21-40%) | 1 (1=0-20%) | 1 (1=0-20%) | 0 | 0 | 0 | 0 | 0 | 1 (1=0-20%)
CCn1c(C)c(-c2cc(Cl)c(OC)c(OC)c2)c(=O)c(C(=O)O)c1-c1ccc(Cl)c(Cl)c1 [Compound 87, 5-(3-chloro-4,5-dimethoxy-phenyl)-2-(3,4-dichlorophenyl)-1-ethyl-6-methyl-4-oxo-pyridine-3-carboxylic acid] | 3 (3=41-60%) | 2 (2=21-40%) | 2 (2=21-40%) | 2 (2=21-40%) | 3 (3=41-60%) | 1 (1=0-20%) | 1 (1=0-20%) | 4 (4=61-80%) | 1 (1=0-20%) | 1 (1=0-20%) | 1 (1=0-20%) | 1 (1=0-20%)
CCn1c(C)c(-c2cc(F)c(OC)c(Cl)c2)c(=O)c(C(=O)O)c1-c1ccc(Cl)c(Cl)c1 [Compound 75, 5-(3-chloro-5-fluoro-4-methoxy-phenyl)-2-(3,4-dichlorophenyl)-1-ethyl-6-methyl-4-oxo-pyridine-3-carboxylic acid] | 2 (2=21-40%) | 1 (1=0-20%) | 1 (1=0-20%) | 2 (2=21-40%) | 1 (1=0-20%) | 1 (1=0-20%) | 1 (1=0-20%) | 1 (1=0-20%) | 1 (1=0-20%) | 1 (1=0-20%) | 1 (1=0-20%) | 1 (1=0-20%)
CCn1c(C)c(-c2ccc(SC)cc2)c(=O)c(C(=O)O)c1-c1ccc(Cl)c(Cl)c1 [Compound 93, 2-(3,4-dichlorophenyl)-1-ethyl-6-methyl-5-(4-methylsulfanylphenyl)-4-oxo-pyridine-3-carboxylic acid] | 2 (2=21-40%) | 1 (1=0-20%) | 3 (3=41-60%) | 2 (2=21-40%) | 2 (2=21-40%) | 1 (1=0-20%) | 1 (1=0-20%) | 4 (4=61-80%) | 3 (3=41-60%) | 1 (1=0-20%) | 1 (1=0-20%) | 1 (1=0-20%)
CCn1c(C)c(-c2cc(Cl)nc(OC(C)C)c2)c(=O)c(C(=O)O)c1-c1ccc(Cl)c(Cl)c1 [Compound 69, 5-(2-chloro-6-isopropoxy-4-pyridyl)-2-(3,4-dichlorophenyl)-1-ethyl-6-methyl-4-oxo-pyridine-3-carboxylic acid] | 2 (2=21-40%) | 2 (2=21-40%) | 1 (1=0-20%) | 3 (3=41-60%) | 3 (3=41-60%) | 1 (1=0-20%) | 1 (1=0-20%) | 4 (4=61-80%) | 1 (1=0-20%) | 4 (4=61-80%) | 2 (2=21-40%) | 2 (2=21-40%)
CCn1c(C)c(-c2ccc(C#N)cc2)c(=O)c(C(=O)O)c1-c1ccc(Cl)c(Cl)n1 [Compound 146, 5-(4-cyanophenyl)-2-(5,6-dichloro-2-pyridyl)-1-ethyl-6-methyl-4-oxo-oyridine-3-carboxylic acid] | 3 (3=41-60%) | 2 (2=21-40%) | 4 (4=61-80%) | 4 (4=61-80%) | 4 (4=61-80%) | 3 (3=41-60%) | 1 (1=0-20%) | 4 (4=61-80%) | 4 (4=61-80%) | 0 | 1 (1=0-20%) | 1 (1=0-20%)
